Several values for one entry are separate records, joined by “and”; a condition that tells them apart may be missing. Identical values can stand only once.
What was measured:
Type in all cases: cell-based
Fusarium graminearum = experiment: microbe, parasite or virus in culture; conditions: used alone, 0.10 ppm
Fusarium fujikuroi = experiment: In vitro antimicrobial activity test on PDA plate media (colony diameter); conditions: used alone
Microdocum nivale = experiment: as above; conditions: used alone
[1] = system: Alternaria alternata apple pathotype; experiment: as above; conditions: used alone
Pyrenophora graminea = experiment: as above; conditions: used alone; for inhibition at 0.13 ppm / inhibition at 0.5 ppm: Pyrenophora graminea, read-out: Actual fungal growth inhibition rate (%)
Gaeumannomyces graminis = experiment: as above; conditions: used alone
Cercospora beticola = experiment: In vitro antimicrobial activity test in 96-well microplate (absorbance at 620 nm); conditions: used alone
Glomerella cingulata = experiment: In vitro antimicrobial activity test on PDA plate media (colony diameter)
Penicillium italicum = experiment: as above; conditions: Penicillium italicum, used alone, 0.50 ppm; read-out: Actual fungal growth inhibition rate (%)
[2] = Colletotrichum gloeosporioides, used alone, 0.50 ppm, read-out: Actual fungal growth inhibition rate (%)
[3] = Alternaria alternata, read-out: Actual fungal growth inhibition rate (%)

In the case of `Cn1cc(C(=O)Nc2ccc(F)cc2-c2ccc(Cl)c(Cl)c2)c(C(F)F)n1` [Bixafen, bixafen], the “Actual fungal growth inhibition rate (%)” value (Fusarium graminearum) is reported as 6% and 0%, the “Actual fungal growth inhibition rate (%)” value (Fusarium fujikuroi; 0.13 ppm) is reported as 13% and the “Actual fungal growth inhibition rate (%)” value (Fusarium fujikuroi; 0.50 ppm) is reported as 19%. For the same compound, the “Actual fungal growth inhibition rate (%)” value (Microdocum nivale; 0.10 ppm) was 0%, the “Actual fungal growth inhibition rate (%)” value ([1]; 0.03 ppm) was 14% and the “Actual fungal growth inhibition rate (%)” value (Pyrenophora graminea; 1.56 ppm) was 75%.

In the case of `Cn1cc(C(=O)Nc2ccccc2-c2cc(F)c(F)c(F)c2)c(C(F)F)n1` [Fluxapyroxad, fluxapyroxad, reference compound], the “Actual fungal growth inhibition rate (%)” value (Gaeumannomyces graminis; 0.10 ppm) is reported as 0% and the “Actual fungal growth inhibition rate (%)” value (Gaeumannomyces graminis; 1.56 ppm) is reported as 0% and 9%.

For `CC(C)c1ccc(Cl)cc1CN(C(=O)c1c(C(F)F)nn(C)c1F)C1CC1` [Isoflucypram, isoflucypram], the “Actual growth inhibition rate” value (Cercospora beticola; 0.008 ppm) was 7%, the “Actual growth inhibition rate” value (Cercospora beticola; 0.04 ppm) was 3% and the “Actual growth inhibition rate” value (Cercospora beticola; 0.2 ppm) was 0%. The “Actual growth inhibition rate” value (Cercospora beticola; 1.0 ppm) was 48%.

In the case of `CO/N=C(/C1=NOCCO1)c1ccccc1Oc1ncnc(Oc2ccccc2Cl)c1F` [Fluoxastrobin, fluoxastrobin, reference compound], the inhibition at 0.5 ppm (Glomerella cingulata; [2]) is reported as 48%, the inhibition at 0.01 ppm (Microdocum nivale; 0.01 ppm, read-out: Actual fungal growth inhibition rate (%)) is reported as 96% and the inhibition at 0.13 ppm [1, 3] is reported as 48%. The inhibition at 0.5 ppm ([1]; Alternaria alternata, 0.50 ppm, read-out: Actual fungal growth inhibition rate (%)) was 43%, the inhibition at 0.13 ppm (Pyrenophora graminea; 0.13 ppm) was 51% and the inhibition at 0.5 ppm (Pyrenophora graminea; 0.50 ppm) was 55%. The “Actual fungal growth inhibition rate (%)” value (Pyrenophora graminea; 0.13 ppm) was 46% and the “Actual fungal growth inhibition rate (%)” value (Pyrenophora graminea; 0.50 ppm) was 59%.

For `O=C(NCCc1ncc(C(F)(F)F)cc1Cl)c1ccccc1C(F)(F)F` [Fluopyram, fluopyram, reference compound], the inhibition at 0.13 ppm (Glomerella cingulata; Colletotrichum gloeosporioides, used alone, 0.13 ppm, read-out: Actual fungal growth inhibition rate (%)) was 3%, the inhibition at 0.5 ppm (Glomerella cingulata; [2]) was 9% and the inhibition at 0.03 ppm (Fusarium fujikuroi; Fusarium fujikuroi, 0.03 ppm, read-out: Actual fungal growth inhibition rate (%)) was 6%. It also gave an inhibition at 0.5 ppm (Fusarium fujikuroi; Fusarium fujikuroi, 0.50 ppm, read-out: Actual fungal growth inhibition rate (%)) of 21%.

In the case of `CC(O)(Cn1cncn1)c1ccc(Oc2ccc(Cl)cc2)cc1C(F)(F)F` (centres unmarked) [Mefentrifluconazole, mefentrifluconazole, reference compound], the “Actual fungal growth inhibition rate (%)” value (Gaeumannomyces graminis; 0.002 ppm) is reported as 0%, the “Actual fungal growth inhibition rate (%)” value (Gaeumannomyces graminis; 0.01 ppm) is reported as 0% and the “Actual fungal growth inhibition rate (%)” value (Gaeumannomyces graminis; 0.03 ppm) is reported as 19%. The “Actual fungal growth inhibition rate (%)” value (Glomerella cingulata; Glomerella cingulata, single chemical at 0.13 ppm) was 74%, the “Actual fungal growth inhibition rate (%)” value (Glomerella cingulata; used alone, 0.01 ppm) was 17% and the “Actual fungal growth inhibition rate (%)” value (Glomerella cingulata; used alone, 0.03 ppm) was 41%. The “Actual fungal growth inhibition rate (%)” value (Glomerella cingulata; used alone, 0.50 ppm) was 77%, the “Actual fungal growth inhibition rate (%)” value (Microdocum nivale; 0.01 ppm) was 1% and the “Actual fungal growth inhibition rate (%)” value ([1]; 0.50 ppm) was 62%.

Compound `CON=C(C(=O)OC)c1ccccc1CON=C(C)c1cccc(C(F)(F)F)c1` [Trifloxystrobin, trifloxystrobin, reference compound] has an inhibition at 0.5 ppm (Penicillium italicum) of 90%, an inhibition at 0.002 ppm (Gaeumannomyces graminis; Gaeumannomyces graminis, 0.002 ppm, read-out: Actual fungal growth inhibition rate (%)) of 8% and an inhibition at 0.03 ppm (Gaeumannomyces graminis; Gaeumannomyces graminis, 0.03 ppm, read-out: Actual fungal growth inhibition rate (%)) of 5%. For the same compound, the inhibition at 0.13 ppm (Gaeumannomyces graminis; Gaeumannomyces graminis, 0.13 ppm, read-out: Actual fungal growth inhibition rate (%)) was 11%, the inhibition at 0.5 ppm (Gaeumannomyces graminis; Gaeumannomyces graminis, 0.50 ppm, read-out: Actual fungal growth inhibition rate (%)) was 15% and the “Actual fungal growth inhibition rate (%)” value (Gaeumannomyces graminis; 0.50 ppm) was 9%. For the same compound, the inhibition at 0.5 ppm (Glomerella cingulata; [2]) was 46%, the inhibition at 0.002 ppm (Fusarium fujikuroi; Fusarium fujikuroi, 0.002 ppm, read-out: Actual fungal growth inhibition rate (%)) was 0% and the inhibition at 0.01 ppm (Fusarium fujikuroi; Fusarium fujikuroi, 0.01 ppm, read-out: Actual fungal growth inhibition rate (%)) was 10%. The inhibition at 0.03 ppm (Microdocum nivale; 0.03 ppm, read-out: Actual fungal growth inhibition rate (%)) was 65%, the inhibition at 0.13 ppm [1, 3] was 48% and the inhibition at 0.13 ppm (Pyrenophora graminea; 0.13 ppm) was 54%. For the same compound, the inhibition at 0.5 ppm (Pyrenophora graminea; 0.50 ppm) was 54% and the “Actual fungal growth inhibition rate (%)” value (Pyrenophora graminea; 0.50 ppm) was 55%.

For `CC1(C)CCC(Cc2ccc(Cl)cc2)C1(O)Cn1cncn1` (centres unmarked) [Metconazole, metconazole, reference compound], the inhibition at 0.001 ppm (Glomerella cingulata; Colletotrichum gloeosporioides, used alone, 0.001 ppm, read-out: Actual fungal growth inhibition rate (%)) was 4%, the inhibition at 0.003 ppm (Glomerella cingulata; Colletotrichum gloeosporioides, used alone, 0.003 ppm, read-out: Actual fungal growth inhibition rate (%)) was 7% and the inhibition at 0.01 ppm (Glomerella cingulata; Colletotrichum gloeosporioides, used alone, 0.01 ppm, read-out: Actual fungal growth inhibition rate (%)) was 28%.
